Values joined by “and” are separate entries in the source; they are usually repeats but may differ in a detail not shown here. Identical values can stand only once.
Key:
[1] = tested on: PD-L1^+ cells in tumor-infiltrating lymphocytes; experiment: Example 2: flow cytometry, percentage of PD-L1^+ cells in TILs; type: in vivo, Mus musculus
Method: (§1) Mice were sacrificed by CO2 euthanasia at the end of the study duration, and the connective tissue around tumor was resected. The tumor samples were then weighed and cut equally into three sections if the tumor weight over 400 mg. The tumor tissue was prepared for the isolation of tumor-infiltrating lymphocytes (TILs). The rest of one section was fixed in 10% formaldehyde and embedded in paraffin; the other was stored at a temperature below −70° C.
The tumor samples were dissected into smaller fragments using scalpels and then digested with a cocktail of collagenase, DNase I, and Hyaluronidase (Collagenase #C5138, DNase I #D5025, Hyaluronidase #H6254, SigmaAldrich) for at least 2 hours.
Cells were stained with the fluorescently conjugated surface antibodies and incubated for 30 minutes at 4° C., and then resuspended in staining buffer for flow cytometric analysis. Flow cytometry was done using a Navios EX Flow Cytometer (Beckman Coulter). Data were analyzed using the Kaluza Analysis Software (Beckman Coulter).

HepG2 tumor = experiment: Example 2: tumor volume, tumor weight and TGI in HepG2 tumor bearing humanized mice; type: in vivo, Mus musculus; conditions: for mean tumor volume: mean±SEM; for tumor growth inhibition (TGI): Day 30 vs Day 0, alone or with anti-hPD-1 20 mg/kg
Method: 1. Species: Mus musculus • Strain: Advanced immunodeficiency mouse. • (NOD.CgPrkdc^scid Il2rg) • Source: Trineo Biotechnology Co., LTD.
Each group contains six mice. The human hepatocellular carcinoma cell line HepG2 were subcutaneously inoculated to the advanced immune-deficiency mice. Total of 42 mice were included in this study.
2.2. […] The subcutaneous injection volume was […].
3.1. […] The injection was performed using insulin syringe with the dosage of 0.3 mg/kg or 1 mg/kg and the injection volume was 5 mL/kg. […] The reference item was administered for G1. The procedure followed the standards of sample administration. The starting day of test item administration was denoted as the first experimental day (DO).
3.2. […] The injection was performed using insulin syringe with the dosage of 20 mg/kg and injection volume of 10 mL/kg. […] The procedure followed the standards of sample administration.
The measurement was performed from the next day of the inoculation. The tumor volumes were measured and recorded twice a week (Mon., Thur.). Tumor volume was calculated by ellipsoid equation according to the records ((major axis×minor axis×minor axis)×(π/6)).
Tumor volumes were used to calculate tumor growth inhibition (TGI) rates according to the following formula: TGI (%)=[1−(Ti−T0)/(Ci−C0)]×100, where Ti and Ci indicate the mean tumor volume in the treatment groups and vehicle group at the end of the experiment (Day 30). Whereas, T0 and C0 indicate the mean tumor volumes in the treatment group and vehicle group at the beginning of the experiment (Day 0).
as §1

[2] = G2, OBI-3424 0.3 mg/kg, group Mean
[3] = G2, OBI-3424 0.3 mg/kg, individual animal, 0.3 mg/kg
[4] = G3, OBI-3424 1 mg/kg, group Mean
[5] = G3, OBI-3424 1 mg/kg, individual animal, 1 mg/kg
[6] = G2 OBI-3424 (0.3 mg/kg), D30, group Mean
[7] = G2 OBI-3424 (0.3 mg/kg), D30, individual animals, 0.3 mg/kg

C[C@H](OP(=O)(N1CC1)N1CC1)c1ccc([N+](=O)[O-])c(Oc2cccc(C(=O)N(C)C)c2)c1 [OBI-3424, (S)-1-(3-(3-N,N-dimethylaminocarbonyl)phenoxyl-4-mtrophenyl)-1-ethyl-N,N′-bis(ethylene)phosphoramidate]
PD-L1^+ cells (CD45^− PD-L1^+), CD45^− Gated % [1, 2]: 9.15%
PD-L1^+ cells (CD45^− PD-L1^+), Cell count [1, 2]: 4.91 ×10^5
PD-L1^+ cells (CD45^− PD-L1^+), Total % [1, 2]: 1.95%
Total PD-L1^+ cells (PD-L1^+), Cell count [1, 2]: 9.60 ×10^5
Total PD-L1^+ cells (PD-L1^+), Total % [1, 2]: 3.79%
Total PD-L1^+ cells (PD-L1^+), Total cells Gated % [1, 2]: 5.18%
PD-L1^+ cells (CD45^− PD-L1^+), CD45^− Gated % [1, 3]: 15.51% and 5.86% and 9.64% and 4.13% and 12.53% and 7.23%
PD-L1^+ cells (CD45^− PD-L1^+), Cell count [1, 3]: 9.41 ×10^5 and 2.07 ×10^5 and 10.69 ×10^5 and 0.07 ×10^5 and 6.63 ×10^5 and 0.61 ×10^5
PD-L1^+ cells (CD45^− PD-L1^+), Total % [1, 3]: 4.84% and 1.01% and 1.98% and 0.35% and 2.69% and 0.84%
Total PD-L1^+ cells (PD-L1^+), Cell count [1, 3]: 14.43 ×10^5 and 6.01 ×10^5 and 24.62 ×10^5 and 0.29 ×10^5 and 10.67 ×10^5 and 1.56 ×10^5
Total PD-L1^+ cells (PD-L1^+), Total % [1, 3]: 7.42% and 2.94% and 4.56% and 1.34% and 4.33% and 2.15%
Total PD-L1^+ cells (PD-L1^+), Total cells Gated % [1, 3]: 11.84% and 3.97% and 5.50% and 1.44% and 5.16% and 3.16%
PD-L1^+ cells (CD45^− PD-L1^+), CD45^− Gated % [1, 4]: 4.40%
PD-L1^+ cells (CD45^− PD-L1^+), Cell count [1, 4]: 0.38 ×10^5
PD-L1^+ cells (CD45^− PD-L1^+), Total % [1, 4]: 0.48%
Total PD-L1^+ cells (PD-L1^+), Cell count [1, 4]: 1.61 ×10^5
Total PD-L1^+ cells (PD-L1^+), Total % [1, 4]: 2.08%
Total PD-L1^+ cells (PD-L1^+), Total cells Gated % [1, 4]: 2.24%
PD-L1^+ cells (CD45^− PD-L1^+), CD45^− Gated % [1, 5]: 4.18% and 2.31% and 4.37% and 7.16% and 4.63%
PD-L1^+ cells (CD45^− PD-L1^+), Cell count [1, 5]: 0.08 ×10^5 and 0.30 ×10^5 and 0.41 ×10^5 and 0.51 ×10^5 and 0.49 ×10^5 and 0.47 ×10^5
PD-L1^+ cells (CD45^− PD-L1^+), Total % [1, 5]: 0.27% and 0.24% and 0.58% (2×) and 0.52% and 0.66%
Total PD-L1^+ cells (PD-L1^+), Cell count [1, 5]: 0.46 ×10^5 and 1.50 ×10^5 and 2.03 ×10^5 and 1.69 ×10^5 and 1.67 ×10^5 and 2.32 ×10^5
Total PD-L1^+ cells (PD-L1^+), Total % [1, 5]: 1.58% and 1.19% and 2.88% and 1.71% and 2.24% and 2.86%
Total PD-L1^+ cells (PD-L1^+), Total cells Gated % [1, 5]: 1.66% and 1.26% and 3.32% and 1.80% and 2.39% and 3.03%
dose relation of reduction in mean tumor volume (in words) (HepG2 tumor; Example 2, D30, OBI-3424 0.3 mg/kg and 1 mg/kg): dose-related reduction
mean tumor volume (HepG2 tumor; Example 2, D30, OBI-3424 0.3 mg/kg IV, alone (G2) or with anti-hPD-1 20 mg/kg IP (G5)): 716.44±31.12 mm^3
mean tumor volume (HepG2 tumor; Example 2, D30, OBI-3424 1 mg/kg IV, alone (G3) or with anti-hPD-1 20 mg/kg IP (G6)): 216.90±22.20 mm^3
mean tumor volume compared with vehicle (in words) (HepG2 tumor; Example 2, D30, vs vehicle (G1), OBI-3424 high-dose 1 mg/kg (G3), anti-hPD-1 20 mg/kg (G4), combinations G5-G7): significantly suppressed
tumor weight compared with vehicle (in words) (HepG2 tumor; Example 2, Day 30, OBI-3424 low-dose (G2), high-dose (G3), combinations G5-G7 vs vehicle (G1)): significantly suppressed
tumor growth inhibition (TGI) (HepG2 tumor; Example 2, high-dose OBI-3424 (1 mg/kg)): 113.27%
tumor growth inhibition (TGI) (HepG2 tumor; Example 2, low-dose OBI-3424 (0.3 mg/kg)): 27.82%
anti-tumor effect (conclusion in words) (HepG2 tumor; Example 2, HepG2 humanized mouse model, combination: high-dose OBI-3424): dose-dependent trend with anti-tumor activity
TGI (HepG2 tumor; G2 OBI-3424 (0.3 mg/kg)): 27.82%
Tumor volume (HepG2 tumor; G2 OBI-3424 (0.3 mg/kg), D0, group Mean): 293.3 mm^3
Tumor volume (HepG2 tumor; G2 OBI-3424 (0.3 mg/kg), D0, individual animals, 0.3 mg/kg): 280.0 mm^3 and 279.4 mm^3 and 226.0 mm^3 and 353.6 mm^3 and 317.7 mm^3 and 303.0 mm^3
Tumor volume (HepG2 tumor; G2 OBI-3424 (0.3 mg/kg), D2, group Mean): 300.8 mm^3
Tumor volume (HepG2 tumor; G2 OBI-3424 (0.3 mg/kg), D2, individual animals, 0.3 mg/kg): 283.9 mm^3 and 281.1 mm^3 and 230.6 mm^3 and 354.0 mm^3 and 321.0 mm^3 and 334.4 mm^3
Tumor volume (HepG2 tumor; G2 OBI-3424 (0.3 mg/kg), D6, group Mean): 307.8 mm^3
Tumor volume (HepG2 tumor; G2 OBI-3424 (0.3 mg/kg), D6, individual animals, 0.3 mg/kg): 289.0 mm^3 and 293.9 mm^3 and 241.0 mm^3 and 356.0 mm^3 and 330.5 mm^3 and 336.3 mm^3
Tumor volume (HepG2 tumor; G2 OBI-3424 (0.3 mg/kg), D9, group Mean): 388.7 mm^3
Tumor volume (HepG2 tumor; G2 OBI-3424 (0.3 mg/kg), D9, individual animals, 0.3 mg/kg): 375.6 mm^3 and 367.0 mm^3 and 395.2 mm^3 and 367.9 mm^3 and 388.9 mm^3 and 437.7 mm^3
Tumor volume (HepG2 tumor; G2 OBI-3424 (0.3 mg/kg), D13, group Mean): 509.0 mm^3
Tumor volume (HepG2 tumor; G2 OBI-3424 (0.3 mg/kg), D13, individual animals, 0.3 mg/kg): 569.5 mm^3 and 452.6 mm^3 and 528.9 mm^3 and 388.3 mm^3 and 590.7 mm^3 and 524.2 mm^3
Tumor volume (HepG2 tumor; G2 OBI-3424 (0.3 mg/kg), D16, group Mean): 617.1 mm^3
Tumor volume (HepG2 tumor; G2 OBI-3424 (0.3 mg/kg), D16, individual animals, 0.3 mg/kg): 714.1 mm^3 and 528.0 mm^3 and 714.4 mm^3 and 405.8 mm^3 and 749.1 mm^3 and 591.5 mm^3
Tumor volume (HepG2 tumor; G2 OBI-3424 (0.3 mg/kg), D20, group Mean): 702.3 mm^3
Tumor volume (HepG2 tumor; G2 OBI-3424 (0.3 mg/kg), D20, individual animals, 0.3 mg/kg): 808.4 mm^3 and 658.4 mm^3 and 854.0 mm^3 and 419.5 mm^3 and 751.9 mm^3 and 721.3 mm^3
Tumor volume (HepG2 tumor; G2 OBI-3424 (0.3 mg/kg), D23, group Mean): 744.1 mm^3
Tumor volume (HepG2 tumor; G2 OBI-3424 (0.3 mg/kg), D23, individual animals, 0.3 mg/kg): 889.2 mm^3 and 661.3 mm^3 and 890.1 mm^3 and 297.5 mm^3 and 842.6 mm^3 and 884.2 mm^3
Tumor volume (HepG2 tumor; G2 OBI-3424 (0.3 mg/kg), D27, group Mean): 717.3 mm^3
Tumor volume (HepG2 tumor; G2 OBI-3424 (0.3 mg/kg), D27, individual animals, 0.3 mg/kg): 926.9 mm^3 and 527.6 mm^3 and 909.1 mm^3 and 205.1 mm^3 and 848.5 mm^3 and 886.5 mm^3
Tumor volume (HepG2 tumor; [6]): 716.4 mm^3
Tumor weight (HepG2 tumor; [6]): 304.45 mg
Tumor volume (HepG2 tumor; [7]): 1012. mm^3 and 468.2 mm^3 and 882.8 mm^3 and 181.5 mm^3 and 850.4 mm^3 and 903.5 mm^3
Tumor weight (HepG2 tumor; [7]): 445.50 mg and 223.90 mg and 327.90 mg and 63.40 mg and 449.00 mg and 317.00 mg
TGI (HepG2 tumor; G3 OBI-3424 (1 mg/kg)): 113.27%
Tumor volume (HepG2 tumor; G3 OBI-3424 (1 mg/kg), D0, individual animals, 1 mg/kg): 290.8 mm^3 and 318.0 mm^3 and 286.8 mm^3
Tumor volume (HepG2 tumor; G3 OBI-3424 (1 mg/kg), D2, individual animals, 1 mg/kg): 295.5 mm^3 and 322.4 mm^3 and 292.9 mm^3
Tumor volume (HepG2 tumor; G3 OBI-3424 (1 mg/kg), D6, individual animals, 1 mg/kg): 297.0 mm^3 and 328.4 mm^3 and 304.4 mm^3
Tumor volume (HepG2 tumor; G3 OBI-3424 (1 mg/kg), D9, individual animals, 1 mg/kg): 337.5 mm^3 and 468.5 mm^3 and 334.0 mm^3
Tumor volume (HepG2 tumor; G3 OBI-3424 (1 mg/kg), D13, individual animals, 1 mg/kg): 341.3 mm^3 and 492.3 mm^3 and 362.5 mm^3
Tumor volume (HepG2 tumor; G3 OBI-3424 (1 mg/kg), D16, individual animals, 1 mg/kg): 359.9 mm^3 and 556.8 mm^3 and 465.2 mm^3
Tumor volume (HepG2 tumor; G3 OBI-3424 (1 mg/kg), D20, individual animals, 1 mg/kg): 345.0 mm^3 and 552.1 mm^3 and 465.2 mm^3
Tumor volume (HepG2 tumor; G3 OBI-3424 (1 mg/kg), D23, individual animals, 1 mg/kg): 260.7 mm^3 and 544.3 mm^3 and 419.2 mm^3
